Laboratory results taken from patent US6077525A, “Use of conjugated linoleic acids” (The George Washington University, priority 1998, dated 2000).
Like-named read-outs stand apart in the source and are kept apart here.

Experiments:
[1] = system: 12-lipoxygenase (human platelet 12-HETE formation); assay: Human platelet 12-HETE formation from [14C]-arachidonic acid, TLC; format: cell-based; conditions: CLA mix 3 and 10 μM; 9,11-18:2 30 and 60 μM; 10,12-18:2 3 and 10 μM; with ionophore A23187
Procedure: Human platelets were isolated from donors according to previously established procedures (13) and resuspended in Krebs-Henseleit buffer (pH 7.4) at a concentration of 3×10^8 platelets/ml. The platelets (0.5 ml) were placed in a 37° C. water bath for several minutes and then treated with either vehicle (ethanol) or various concentrations of the fatty acid to be tested for 2 min. Next, 10 μM (final concentration) [^14 C]-arachidonic acid was added. In some experiments, 20 μM calcium ionophore A23187 was added about 5 sec. prior to the addition of the arachidonic acid substrate. […] Product separation and analysis by thin layer chromatography (TLC) was carried out as previously described using unlabeled arachidonic acid, 15-HETE and thromboxane B2 as standards (11). The various radioactive product and unreacted substrate bands were visualized by autoradiography and quantitated either by scraping the bands from the TLC plate and counting the samples in a liquid scintillation counter or by determining the relative band intensities using a Personal Densitometer SI (Molecular Dynamics, Sunnyvale, Calif.) with ImageQuaNT v4.2 software). To obtain the results shown in FIG. 2, the human platelets were pretreated with the various concentrations of CLA isomers followed by the addition of calcium ionophore A23187 and [^14 C]-arachidonic acid. […]

[2] = system: human platelet thromboxane production (cyclooxygenase pathway); assay: Human platelet thromboxane (TXB2) formation from [14C]-arachidonic acid, TLC; format: cell-based; conditions: for TXB2 formation (FIG. 2): CLA mix 3 and 10 μM, 9,11-18:2 30 and 60 μM, 10,12-18:2 3 and 10 μM, with ionophore A23187; for inhibitory effectiveness on platelet TXB2 formation, CLA mix and pure isomers compared: CLA mix vs pure 9,11- and 10,12-18:2; for IC50: Platelet, read-out: Inhibitory Potency (I50); for potency as thromboxane inhibitor relative to non-hydroxylated parent: 13-HODE vs 9,11-18:2
Procedure: Human platelets were isolated from donors according to previously established procedures (13) and resuspended in Krebs-Henseleit buffer (pH 7.4) at a concentration of 3×10^8 platelets/ml. The platelets (0.5 ml) were placed in a 37° C. water bath for several minutes and then treated with either vehicle (ethanol) or various concentrations of the fatty acid to be tested for 2 min. Next, 10 μM (final concentration) [^14 C]-arachidonic acid was added. In some experiments, 20 μM calcium ionophore A23187 was added about 5 sec. prior to the addition of the arachidonic acid substrate. Ten minutes after the addition of arachidonic acid, the reaction was terminated with 10% formic acid and the products extracted with chloroform-methanol. Product separation and analysis by thin layer chromatography (TLC) was carried out as previously described using unlabeled arachidonic acid, 15-HETE and thromboxane B2 as standards (11). The various radioactive product and unreacted substrate bands were visualized by autoradiography and quantitated either by scraping the bands from the TLC plate and counting the samples in a liquid scintillation counter or by determining the relative band intensities using a Personal Densitometer SI (Molecular Dynamics, Sunnyvale, Calif.) with ImageQuaNT v4.2 software).
To obtain the results shown in FIG. 2, the human platelets were pretreated with the various concentrations of CLA isomers followed by the addition of calcium ionophore A23187 and [^14 C]-arachidonic acid. Products were isolated, separated by thin layer chromatography as described above. […] The identities of the bands in decreasing order of Rf are as follows: AA-unreacted arachidonic acid, 12-HETE-12-hydroxyeicosatetraenoic acid (a platelet 12-lipoxygenase metabolite), HHT-12-hydroxyheptadecatrienoic acid, TXB2 -thromboxane B2, the latter two products are cyclooxygenase metabolites, origin-sample application point.
The data shown were obtained by determining the effects of various concentrations of CLA isomers on platelet thromboxane B2 production. […] [^14 C]-thromboxane B2 production by fatty acid-treated platelets relative to vehicle-treated platelets was determined and expressed as % control. Symbols used for various fatty acids: ΔΔ, CLA mix .box-solid.-.box-solid., 10,12-18:2, .smallcircle.-.smallcircle., 9,11-18:2, *-*, 13-HODE, .gradient.-.gradient., 9-HODE.

[3] = human platelets, exogenous arachidonic acid, calcium ionophore A23187, mean ± S.E.M., 6-11 donors

| IC50 [2, 3] | Compound | 12-HETE production (FIG. 2) [1] | TXB2 formation (FIG. 2) [2] | inhibitory effectiveness on platelet TXB2 formation, CLA mix and pure isomers compared [2] | decrease of inhibitory effectiveness relative to 10,12-18:2 ([2]; 9-HODE vs 10,12-18:2) | potency as thromboxane inhibitor relative to non-hydroxylated parent ([2]; 9-HODE vs 10,12-18:2) | enhancement of inhibitory potency relative to the non-hydroxylated analog ([2]; 13-HODE vs 9,11 isomer) | IC50 ([2]; Homo sapiens) |
| --- | --- | --- | --- | --- | --- | --- | --- | --- |
| 16 ± 1.8 µM | CCCCCC/C=C/C=C\CCCCCCCC(=O)O [9,11-18:2, 9,11-octadecadienoic acid] | no effect on the 12-HETE production | TXB2 was inhibited | approximately the same | – | – | – | – |
| 34 ± 6.5 µM | CCCCC/C=C\C=C\C(O)CCCCCCCC(=O)O (stereo not drawn) [9-HODE] | – | – | – | more than two | less potent than the corresponding non-hydroxylated parent 10,12-18:2 | – | – |
| 13 ± 4.1 µM | CCCCC/C=C\C=C\CCCCCCCCC(=O)O [10,12-18:2, 10,12-octadecadienoic acid] | no effect on the 12-HETE production | TXB2 was inhibited | approximately the same | – | – | – | – |
| 3 ± 0.7 µM | CCCCC[C@H](O)/C=C/C=C\CCCCCCCC(=O)O [13-HODE] | – | – | – | – | more potent as a thromboxane inhibitor than the parent 9,11-18:2 | about five | – |
| – | CCCCCCCC/C=C\CCCCCCCC(=O)O [Oleic acid] | – | – | – | – | – | – | > 60 µM |
